# According to patent US20180185448A1, “COMPOSITION AND METHOD FOR INDUCING ANTI-INFLAMMATORY RESPONSE” (Vital Therapies, Inc., priority 2015, published 2018):
# Entries after “also recorded” stand apart in the source; their conditions may differ.
# Key:
# monolayer C3A cells [1] = assay: Monolayer C3A cells incubated with inflammatory cytokines (IL-6, IL-1β, TNF-α); secreted factors assayed in conditioned media by ELISA/multiplex; type: cell-based, human; conditions: for AAT secretion at 54 h: 54 h compared with 24 h; for TNF-α secretion: 24 and 48 h; for IL-10 secretion / IL-10 secretion at 48 hr: 10 ng/mL; for IL-10 secretion: 24 h vs controls; for IL-10 secretion at 48 hr: 48 hr compared with 24 h
# Method: (§1) Conditioned media from C3A cells of an active cartridge of a treatment system of the disclosure were assayed for APP, cytokines, and other mediators that affect inflammation using singleplex ELISA kits (R&D Systems, abcam), chemiluminescent multiplex array kits (Aushon) and/or contracted services (Myriad Rules Based Medicine). Inflammatory cytokines reported to be present in hepatitis patient serum (IL-6 [0, 1, 10, 100 ng/mL]±IL-1β [0, 1, 10, 100 ng/mL]) were incubated with monolayer, or C3A cells recovered from the treatment system, for 24 or 54 h, and conditioned media were assayed for the APP IL-1 receptor antagonist (IL-1Ra), alpha-1-antitrypsin (AAT), and albumin. Lipopolysaccharide (LPS) (0, 0.01, 0.1, 1, 10 EU/mL) was incubated with monolayer C3A cells for 24 h and assayed for APP.
# Conditioned media from active cartridges including qualified C3A cells were assayed for APP, cytokines, and other mediators that affect inflammation. Inflammatory cytokines present in patient serum (IL-6±IL-1β) were incubated with monolayer, or C3A cells recovered from the system, for 24 or 54 h and media assayed for IL-1 receptor antagonist (IL-1Ra) and alpha-1-antitrypsin (AAT).
# (§2) C3A cells of the invention were plated in monolayer and incubated with LPS or with inflammatory cytokines (IL-6, IL-1β, and/or TNF-α) for 24, 48, or 54 h. Cytokines were dosed individually or in combination at 0, 1, 10, or 100 ng/mL as indicated in each figure. Separate C3A cells were incubated with LPS at 0, 0.01, 0.1, 1, or 10 EU/mL for 24 h.
# (§3) Additionally, intact C3A tissue (C3A cells cultured three-dimensionally between polysulfone hollow fibers) was excised from C3A cell cartridges and dosed in conjunction with 10 ng/mL IL-1β and 10 ng/mL IL-6 for 24 h. The supernatants from these monolayer C3A cell and ELAD C3A tissue experiments were assayed for IL-1Ra, AAT, IL-10, or albumin via in-house and commercial ELISA kits (R&D Systems, abcam), contracted services for multiplex ELISAs (Myriad), or chemiluminescent multiplex assay kits (Aushon).
# monolayer C3A cells [2] = assay: Monolayer C3A cells incubated with LPS for 24 h; IL-1Ra and AAT assayed in media; type: cell-based, human
# Method: as §1, §2, §3
# [3] = Example 1, monolayer C3A cultures
# [4] = Example 3, monolayer C3A cells 1.3×10^5 cells/cm, 24 and 54 h, n=3
# [5] = Examples 1-2, monolayer C3A cells, 24 h, single replicates of pooled triplicate wells
# [6] = Examples 1-2, monolayer C3A cells
# [7] = FIG. 18 experiment, monolayer C3A cells 2.6×10^5 cells/cm^2, TNF-α 1, 10 or 100 ng/mL, IL-1β 10 ng/mL
# [8] = monolayer C3A cells 2.6×10^5 cells/cm^2
# [9] = monolayer C3A cells, IL-6 ± IL-1β 1-100 ng/mL, 24 h (or time not stated)
# [10] = Example 3, monolayer C3A cells 1.3×10^5 cells/cm^2
# [11] = Example 3, monolayer, 24, 48 hr
# [12] = Example 3, monolayer, 24 hr, 48 hr
substance,measurement,setting,value
Interleukin-1 beta [IL-1β],G-CSF increase,monolayer C3A cells [1]; [3],50 fold
same,IL-8 increase,monolayer C3A cells [1]; [3],"2,000 fold"
same,SCF increase,monolayer C3A cells [1]; [3],100 fold
same,TNFα increase,monolayer C3A cells [1]; [3],25 fold
same,AAT secretion,monolayer C3A cells [1]; [4],no apparent effect; also recorded: not affected
same,IL-6-induced fibrinogen expression on addition of IL-1β,"monolayer C3A cells [1]; Example 3, monolayer C3A cells, IL-1β added to IL-6",abrogated
same,AAT secretion,monolayer C3A cells [1]; [5],dose-dependent upregulation; also recorded: upregulated
same,AAT secretion,"monolayer C3A cells [1]; Examples 1-2, monolayer C3A cells, 24 h, single replicates of pooled triplicate wells, listed as IL-1 β",dose-dependent up-regulation
same,AAT secretion at 54 h,monolayer C3A cells [1]; [6],further increased; also recorded: increases with exposure time
same,AAT secretion at 54 h,"monolayer C3A cells [1]; Examples 1-2, monolayer C3A cells, listed as IL-1 β",further increased
same,IL-1Ra secretion,monolayer C3A cells [1]; [7],increased; also recorded: upregulated
same,TNF-α secretion,monolayer C3A cells [1]; [8],"upregulated; also recorded: low, yet elevated"
same,IL-10 secretion,monolayer C3A cells [1]; monolayer C3A cells,increased above the controls; also recorded: upregulated
same,IL-10 secretion at 48 hr,monolayer C3A cells [1]; monolayer C3A cells,further increased
same,IL-1Ra secretion,monolayer C3A cells [1]; [9],did not increase
Interleukin-6 [IL-6],IL-10 increase,monolayer C3A cells [1]; [3],10 fold
same,IL-18 increase,monolayer C3A cells [1]; [3],9 fold
same,MCP-1 increase,monolayer C3A cells [1]; [3],15 fold
same,TNF-β increase,monolayer C3A cells [1]; [3],12 fold
same,fibrinogen increase,monolayer C3A cells [1]; [3],6 fold
same,AAT secretion,monolayer C3A cells [1]; [4],no apparent effect; also recorded: not affected
same,fibrinogen secretion,monolayer C3A cells [1]; [10],increased
same,α-2 macroglobulin secretion,monolayer C3A cells [1]; [10],increased; also recorded: modestly upreguated
same,Fibrinogen increase vs. control,monolayer C3A cells [1]; [11],~6 fold
same,IL-18 increase vs. control,monolayer C3A cells [1]; [11],~9 fold
same,Monocyte chemotactic protein 1 (MCP-1) increase vs. control,monolayer C3A cells [1]; [11],~15 fold
same,TNF-β increase vs. control,monolayer C3A cells [1]; [11],~12 fold
same,Granulocyte-colony stimulating factor (G-CSF) increase vs. control,"monolayer C3A cells [1]; Example 3, monolayer, 24 hr",~50 fold
same,IL-7 increase vs. control,"monolayer C3A cells [1]; Example 3, monolayer, 24 hr",~10 fold
same,IL-10 increase vs. control,"monolayer C3A cells [1]; Example 3, monolayer, 24 hr",~10 fold
same,IL-8 increase vs. control,monolayer C3A cells [1]; [12],"~2,000 fold"
same,Stem cell factor (SCF) increase vs. control,monolayer C3A cells [1]; [12],~100 fold
same,TNFα increase vs. control,monolayer C3A cells [1]; [12],~25 fold
same,Granulocyte-colony stimulating factor (G-CSF) increase vs. control,"monolayer C3A cells [1]; Example 3, monolayer, 48 hr",~75 fold
same,IL-7 increase vs. control,"monolayer C3A cells [1]; Example 3, monolayer, 48 hr",~14 fold
same,Granulocyte-colony stimulating factor (G-CSF) increase with IL-6 vs. control,"monolayer C3A cells [1]; Example 3, monolayer, 24 hr",~300 fold
same,Granulocyte-colony stimulating factor (G-CSF) increase with IL-6 vs. control,"monolayer C3A cells [1]; Example 3, monolayer, 48 hr",~500 fold
same,AAT secretion,monolayer C3A cells [1]; [5],dose-dependent upregulation; also recorded: upregulated; also recorded: dose-dependent up-regulation
same,AAT secretion at 54 h,monolayer C3A cells [1]; [6],further increased; also recorded: increases with exposure time
same,TNF-α secretion,monolayer C3A cells [1]; [8],"upregulated; also recorded: low, yet elevated"
same,IL-10 secretion,monolayer C3A cells [1]; monolayer C3A cells,increased above the controls; also recorded: upregulated
same,IL-10 secretion at 48 hr,monolayer C3A cells [1]; monolayer C3A cells,further increased
same,IL-1Ra secretion,monolayer C3A cells [1]; [9],did not increase
TNF-α,IL-1Ra secretion at the highest dose,"monolayer C3A cells [1]; FIG. 18 experiment, TNF-α 100 ng/mL",observed decrease
same,IL-1Ra secretion,monolayer C3A cells [1]; [7],did not increase; also recorded: not TNF-α alone
same,APP expression,"monolayer C3A cells [1]; TNF-α, except when dosed 10,000-fold higher than measured in culture",did not significantly impact
lipopolysaccharide [LPS],IL-1Ra secretion,"monolayer C3A cells [2]; LPS 0.01, 0.1, 1, 10 EU/mL",increased; also recorded: upregulated
same,AAT levels,"monolayer C3A cells [2]; LPS 0.01-10 EU/mL, higher concentrations = 1 and 10 EU/mL",upregulated; also recorded: increased only at higher concentrations
same,IL-1Ra secretion increase,"monolayer C3A cells [2]; LPS at all concentrations evaluated (0.01, 0.1, 1, and 10 EU/mL)",approximately 2 fold
